A short description of the series: Human HepG2 cell viability assay in 384 well format. The class given is toxicity, cell-based. Details: dose 125 nL, time 70.5 hour; cytotoxicity at 70.5 h: concentration not given beside the values. The settings on record: HepG2 cells, read-out: Inhibition.
In the case of `CCCC(=O)N(CCN1CCOCC1)c1nc2c(OC)ccc(C)c2s1`, the cytotoxicity at 70.5 h was -7.03%.

Regarding `Cc1c(C)n2c(SCC(=O)N3CCC(C)CC3)nnc2[nH]c1=O`, the cytotoxicity at 70.5 h was -4.99%.

With `Cc1c(C)n2c(SCC(=O)N3CCCC3)nnc2[nH]c1=O`, the cytotoxicity at 70.5 h is -7.34%.

`O=C(Nc1cc(C(F)(F)F)ccc1Cl)c1ccc(N2CCCC2)nn1`: the cytotoxicity at 70.5 h worked out at 19.7%.

Turning to `O=C(NCc1ccc2c(c1)OCO2)c1ccc(N2CCCCC2)nn1`, the cytotoxicity at 70.5 h was found to be 12.8%.

With `O=C(Nc1ccc(Br)cc1F)c1ccc(N2CCOCC2)nn1`, the cytotoxicity at 70.5 h is -6.45%.

On to `COCCn1/c(=N/C(=O)C(C)C)sc2cc(Cl)ccc21`, for which the cytotoxicity at 70.5 h was determined as 21.1%.

With `CCSc1nc(N)c(NC(=O)c2ccc(C)cc2)c(=O)[nH]1`, the cytotoxicity at 70.5 h was determined as 10.5%.

In the case of `O=C(O)c1ccc(N2CCC(Cc3ccccc3)CC2)nn1`, the cytotoxicity at 70.5 h was -1.14%.

Take `Cc1nc(-n2nc(-c3cccs3)cc2N)[nH]c(=O)c1C`: the cytotoxicity at 70.5 h is -4.91%.

`CCCc1cc(=O)[nH]c(-n2nc(-c3cccs3)cc2N)n1`: the cytotoxicity at 70.5 h is -12.8%.

As to `CC1CCN(C(=O)CSc2nc3c(cnn3CCO)c(=O)[nH]2)CC1`, the cytotoxicity at 70.5 h was determined as 22.7%.

Take `O=C(CSc1nc2c(cnn2CCO)c(=O)[nH]1)NC1CCCCC1`: the cytotoxicity at 70.5 h came to 14.1%.

Take `CC(C)NC(=O)CSc1nc2c(cnn2CCO)c(=O)[nH]1`: the cytotoxicity at 70.5 h is 26.7%.

`NC(=O)Cn1c(CO)cnc1SCC(=O)NCc1ccccc1Cl`: the cytotoxicity at 70.5 h stood at 15.7%.

Regarding `CCS(=O)(=O)Nc1ccc2c(c1)OCC(C)(C)C(=O)N2C`, the cytotoxicity at 70.5 h was 19%.

Take `O=C(c1ccccc1F)N1CCN(c2ccc(-n3cccn3)nn2)CC1`: the cytotoxicity at 70.5 h stood at 0.31%.

In the case of `CCc1cc(=O)[nH]c2nnc(SCC(=O)N3CCC(C)CC3)n12`, the cytotoxicity at 70.5 h came to 19.7%.

In the case of `Cc1cc(C(=O)N2CCN(c3nc4c(C)cccc4s3)CC2)no1`, the cytotoxicity at 70.5 h was 9.18%.

As to `COc1ccc(CNc2c(C)cnc3c2c(=O)n(C)c(=O)n3C)cc1`, the cytotoxicity at 70.5 h was 7.6%.

As to `CCc1cnc2c(c1Nc1ccccc1OC)c(=O)n(C)c(=O)n2C`, the cytotoxicity at 70.5 h is 5.02%.

Consider `CCc1cnc2c(c1Nc1cccc(OC)c1)c(=O)n(C)c(=O)n2C`, for which the cytotoxicity at 70.5 h was found to be 1.18%.

On to `CCc1cnc2c(c1Nc1ccc(C)c(F)c1)c(=O)n(C)c(=O)n2C`, for which the cytotoxicity at 70.5 h was -8.17%.

Regarding `CC(C)c1nn(CC(=O)N2CCCC2)c(=O)c2c1cnn2C(C)(C)C`, the cytotoxicity at 70.5 h is 14.2%.

On to `CCN(CC)C(=O)Cn1nc(C(C)C)c2cnn(C(C)(C)C)c2c1=O`, for which the cytotoxicity at 70.5 h amounted to 13.7%.

For the molecule `COCCNC(=O)Cn1cc(OCc2ccc(F)cc2)c(=O)cc1C`, the cytotoxicity at 70.5 h was found to be 9.56%.

For `COCCNC(=O)Cn1cc(OCc2ccccc2F)c(=O)cc1CO`, the cytotoxicity at 70.5 h came to 45.6%.

As for `Cc1cnc2n(c1=O)C(CC(=O)NCc1ccc(F)cc1)CS2` (centres undefined), the cytotoxicity at 70.5 h was -6.08%.

Regarding `Cc1cnc2n(c1=O)C(CC(=O)NCc1cccs1)CS2` (centres undefined), the cytotoxicity at 70.5 h worked out at 0.951%.

As to `COc1cccc(CNC(=O)CC2CSc3nc(C)c(C)c(=O)n32)c1` (centres undefined), the cytotoxicity at 70.5 h is -2.74%.

Consider `CCCc1cc(=O)[nH]c2nnc(SCC(=O)OC)n12`, for which the cytotoxicity at 70.5 h was -8.96%.

As for `CCCc1cc(=O)[nH]c2nnc(SCC(=O)OCC)n12`, the cytotoxicity at 70.5 h is -9.96%.

With `Cc1ccccc1-n1ncc2c(=O)n(CCN3CCCCC3)cnc21`, the cytotoxicity at 70.5 h came to 21%.

Regarding `CCc1cc(=O)[nH]c(SCc2ccccn2)n1`, the cytotoxicity at 70.5 h is -5.73%.

Turning to `Cc1cc(C)nc(NC(=O)NCCCSc2nncn2C)n1`, the cytotoxicity at 70.5 h is -8.45%.

As to `Cc1cc(NC(=O)NCCCSc2nncn2C)no1`, the cytotoxicity at 70.5 h was -11.7%.

On to `COc1cn(CC(N)=O)c(CSc2nc(C)cc(C)n2)cc1=O`, for which the cytotoxicity at 70.5 h was 59.2%.

With `O=c1nc(SCc2cccnc2)c2c(n1CCO)CCCC2`, the cytotoxicity at 70.5 h was -11%.

Regarding `O=S(=O)(c1cccs1)N1CCC(c2nc(-c3cccs3)no2)CC1`, the cytotoxicity at 70.5 h came to 1.6%.

Turning to `CCCN1CCc2nc(SCc3c(C)cc(C)cc3C)[nH]c(=O)c2C1`, the cytotoxicity at 70.5 h came out at 4.68%.

As to `Cc1nn(CCNS(=O)(=O)c2ccccc2)c(C)c1Cl`, the cytotoxicity at 70.5 h was -7.1%.

As to `CC(=O)c1c(C)nn(CC(=O)Nc2ccc(F)cc2)c1C`, the cytotoxicity at 70.5 h was 30%.

As to `CCCS(=O)(=O)c1ccc(N2CCN(Cc3ccccc3)CC2)nn1`, the cytotoxicity at 70.5 h was -8.4%.

For `CCN(CC)c1nc2ccsc2c(=O)n1CCC(=O)NC1CCCC1`, the cytotoxicity at 70.5 h was -6.51%.

As to `Cc1ccc(NC(=O)Cn2ncc(SCC(N)=O)c(Cl)c2=O)c(F)c1`, the cytotoxicity at 70.5 h is -17.2%.

For the molecule `CC(C)OC(=O)CN1N=C(C(=O)N2CCCC2)S(=O)(=O)c2ccccc21`, the cytotoxicity at 70.5 h is 1.63%.

For the molecule `CCOc1ccc(CNC(=O)c2cnc(OC)nc2)cc1`, the cytotoxicity at 70.5 h is -2.49%.

Consider `CC(C)CCn1nc2ccc(S(=O)(=O)N3CCOCC3)cn2c1=O`, for which the cytotoxicity at 70.5 h was -7.21%.

As for `O=c1c(S(=O)(=O)N2CCCC2)cccn1Cc1ccc(F)cc1Cl`, the cytotoxicity at 70.5 h is 31.5%.

For `CC(C)(C)OC(=O)Cn1cccc(S(=O)(=O)N2CCCCCC2)c1=O`, the cytotoxicity at 70.5 h is -12.4%.

For `O=c1[nH]c2c(-c3ccccn3)nsc2c(=O)n1CC1CC1`, the cytotoxicity at 70.5 h was -14.6%.

For `CC1CCN(c2cc(-n3cnc(C(=O)N4CCSCC4)c3)ncn2)CC1`, the cytotoxicity at 70.5 h is -13.5%.

Regarding `CC1CCN(C(=O)c2cn(-c3cc(N4CCOCC4)ncn3)cn2)CC1`, the cytotoxicity at 70.5 h is -14%.

For the molecule `COc1cccc(C(O)CN2CCN(c3cccc(C)c3)CC2)c1` (centres undefined), the cytotoxicity at 70.5 h came out at 0.851%.

On to `Cc1ccccc1-c1csc2c(=O)[nH]c(N3CCCC(C(=O)O)C3)nc12` (centres undefined), for which the cytotoxicity at 70.5 h was determined as 14.6%.

`O=C(Cc1cc(-c2ccc3c(c2)OCO3)on1)NC1CCCC1`: the cytotoxicity at 70.5 h is -8.33%.

In the case of `Cc1cc(C(=O)N2CCN(c3nc4c(C(C)C)cccc4s3)CC2)on1`, the cytotoxicity at 70.5 h is 32%.

For `CCOc1nn(CC)cc1-c1nnc(SCC)n1C`, the cytotoxicity at 70.5 h was -12.3%.

In the case of `CCOCCSc1nnc(-c2cn(CC)nc2OCC)n1C`, the cytotoxicity at 70.5 h is -7.58%.

On to `CCn1nnc2c1CCN(C(=O)c1ccc3c(c1)OCO3)C2COC` (centres undefined), for which the cytotoxicity at 70.5 h was found to be 10.7%.

With `CN(C)C(=O)c1ccn(-c2ccc3ccccn23)n1`, the cytotoxicity at 70.5 h is -4.81%.

On to `COCCN1CCC2(CCCN(c3ncc(F)cn3)C2)C1` (centres undefined), for which the cytotoxicity at 70.5 h was -3.02%.

Take `CC(C)CNC(=O)N1CCOC2(CCNCC2)C1`: the cytotoxicity at 70.5 h was -3.81%.

On to `O=c1cc(CN2CCCC2)nc2n1CCCN(Cc1ccco1)C2`, for which the cytotoxicity at 70.5 h is -2.44%.

For the molecule `O=C(c1nc2c(s1)CCCN2CC1CC1)N1CCOCC1`, the cytotoxicity at 70.5 h is 4.5%.

Regarding `c1csc(-c2noc(CN3CCc4cncnc4C3)n2)c1`, the cytotoxicity at 70.5 h was -8.24%.

For `Cc1ccc(NC2CCN(C(=O)CCc3ccccc3)CC2)nn1`, the cytotoxicity at 70.5 h is -6.29%.

Turning to `O=C(CCc1ccco1)N1CCC(Nc2cccnn2)CC1`, the cytotoxicity at 70.5 h came out at 1.07%.

Regarding `Cc1ccc(NC2CCN(C(=O)CCc3cscn3)CC2)nn1`, the cytotoxicity at 70.5 h stood at 11.4%.

For the molecule `Cc1ccc(NC2CCN(C(=O)CCNc3ncccn3)CC2)nn1`, the cytotoxicity at 70.5 h is -9.43%.

Take `CC1CN(CC(=O)Nc2ccncc2)CCN1c1nccs1` (centres undefined): the cytotoxicity at 70.5 h is -2.52%.

For the molecule `CN1CCOC(CN(C(=O)CCc2cnn(C)c2)c2nccs2)C1` (centres undefined), the cytotoxicity at 70.5 h is -5.55%.

For `O=C(NCCNc1ncccn1)C1CCN(C(=O)N2CCCC2)CC1`, the cytotoxicity at 70.5 h is -12.3%.

In the case of `CC(C)c1noc(CN2CCN(C(=O)c3cc(Cl)ccc3F)CC2)n1`, the cytotoxicity at 70.5 h was -8.7%.

On to `Cc1nn(C)c(C)c1NC(=O)CN1CCN(c2nccs2)C(C)C1` (centres undefined), for which the cytotoxicity at 70.5 h was -6.35%.

Regarding `Cc1ccc(NC2CCN(C(=O)c3ccco3)CC2)nn1`, the cytotoxicity at 70.5 h worked out at 11.9%.

On to `Cc1nn(-c2ccccc2)cc1C(=O)N1CCCC1c1cnn(C)c1` (centres undefined), for which the cytotoxicity at 70.5 h is -6.59%.

With `c1ccc(-c2noc(CCCN3CCCC3Cn3cncn3)n2)cc1` (centres undefined), the cytotoxicity at 70.5 h is -13.4%.

Regarding `COc1cccc2cc(CNCc3ccnc(N(C)C)c3)oc12`, the cytotoxicity at 70.5 h came out at 7.6%.

As to `CC(c1nc(C(C)(C)C)no1)N1CCN(Cc2ccc(C#N)cc2)CC1` (centres undefined), the cytotoxicity at 70.5 h was -1.19%.

As for `Cn1cnc(S(=O)(=O)NCCCN2CCCC2=O)c1Cl`, the cytotoxicity at 70.5 h is -2.39%.

For `Cn1cnc(S(=O)(=O)NCCCN2CCCCCC2=O)c1Cl`, the cytotoxicity at 70.5 h came out at 0.779%.

With `COc1ccc(OC)c(CNCc2ccnc(N3CCOCC3)c2)c1`, the cytotoxicity at 70.5 h was -4.43%.

For `Cn1ncc2c(N3CCCN(C(=O)c4ccsc4)CC3)ncnc21`, the cytotoxicity at 70.5 h is -1.19%.

As to `Cn1ccc(C(=O)N2CCN(c3ccccn3)CC2)cc1=O`, the cytotoxicity at 70.5 h is -1.81%.

As to `CCCC(=O)N(CCCN1CCOCC1)c1nc2c(F)cccc2s1`, the cytotoxicity at 70.5 h is -1.9%.

`CCCC(=O)N(CCCN1CCOCC1)c1nc2c(C)c(C)ccc2s1`: the cytotoxicity at 70.5 h is -14.7%.

For the molecule `O=C(CSc1nnc(N2CCNCC2)s1)Nc1ccccc1`, the cytotoxicity at 70.5 h was found to be 27.6%.

Turning to `CN(C)C(=O)CN1C(=O)CO[C@@H]2CN(c3ccccn3)C[C@H]21`, the cytotoxicity at 70.5 h was -7.96%.

On to `CC(C)NCC1OCCc2cn(C)nc21` (centres undefined), for which the cytotoxicity at 70.5 h was -6.64%.

With `CCn1ncc2c1C(COC)N(C(=O)c1ccc3c(c1)OCO3)CC2` (centres undefined), the cytotoxicity at 70.5 h was -5.04%.

With `CNC(=O)CN1CCO[C@H]2CN(C(=O)C3CC3)C[C@H]21`, the cytotoxicity at 70.5 h was -2.66%.

Turning to `COCCN1CCC2(C1)CN(c1ncccn1)C2`, the cytotoxicity at 70.5 h was -0.0538%.

For the molecule `Cc1ccc(NC(=O)c2nc3c(s2)CCCN3C(=O)C2CC2)cn1`, the cytotoxicity at 70.5 h stood at 3.07%.

`COCCN1CCO[C@@H]2CN(C(=O)Cc3ccc(F)cc3)CC[C@@H]2C1`: the cytotoxicity at 70.5 h was determined as 4.68%.

With `N#Cc1cccc(CN2CC[C@@H]3CO[C@@H](CN4CCCC4)[C@@H]3C2)c1`, the cytotoxicity at 70.5 h was -4.24%.

Consider `CN(C)CCOCc1nnc2n1CCN(Cc1ccco1)C2`, for which the cytotoxicity at 70.5 h is -1.46%.

Turning to `CNC(=O)CN1CCO[C@H]2CN(CC3CC3)C[C@H]21`, the cytotoxicity at 70.5 h was -2.3%.

As for `Cc1cc(C)c(N(CC(O)CNCc2ccco2)S(C)(=O)=O)c(C)c1` (centres undefined), the cytotoxicity at 70.5 h was -7.18%.

For the origin of these results see ChEMBL document CHEMBL3507680, “University of Dundee, Gates Library screen for HepG2 cell viability”.
